Tests used:
[1] = biological target: T1, Neutrophil elastase (Homo sapiens) (UniProt P08246)
T1 sequence (whole entry): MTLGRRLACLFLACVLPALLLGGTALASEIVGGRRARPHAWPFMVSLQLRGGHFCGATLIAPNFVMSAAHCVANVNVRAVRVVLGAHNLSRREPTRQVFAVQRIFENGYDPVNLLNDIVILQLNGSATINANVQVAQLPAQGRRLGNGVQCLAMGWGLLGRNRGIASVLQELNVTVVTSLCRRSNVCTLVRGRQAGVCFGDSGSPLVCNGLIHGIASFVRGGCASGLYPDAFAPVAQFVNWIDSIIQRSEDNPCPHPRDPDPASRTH
Description: Inhibition of Elastase using Suc-Ala-Ala-Pro-Ala-pNA as substrate, activity expressed as Kobs/[I] (second order rate constant)

[2] = Tested for chemical stability of the compound; assay type: physicochemical
Neutrophil elastase = biological target: T2, Neutrophil elastase (Homo sapiens, UniProt P08246); assay: Tested in vitro for its inhibitory effect against Elastase using Suc-Ala--Ala-Pro-Ala-pNA as substrate
T2 sequence (P08246 whole entry): T1 sequence (whole entry)

Cricetinae gen. sp. [3] = assay: Tested in vivo for inhibition of hamster lung hemorrhage after intratracheal administration at 2 hr prior to challenge with HLE (human leukocyte elastase); assay type: functional, Cricetulus griseus
Cricetinae gen. sp. [4] = assay: Tested in vivo for inhibition of hamster lung hemorrhage after intratracheal administration at 3h prior to challenge with HLE (human leukocyte elastase); assay type: functional, Cricetulus griseus
Cricetinae gen. sp. [5] = assay: Tested in vivo for inhibition of hamster lung hemorrhage after intratracheal administration at 1 hr prior to challenge with HLE (human leukocyte elastase); assay type: functional, Cricetulus griseus
[6] = biological target: T1, Neutrophil elastase (Homo sapiens); assay: Tested in vitro for its inhibitory effect against Human leukocyte elastase using Suc-Ala--Ala-Pro-Ala-pNA as substrate, activity expressed as Kobs/[I] (second order rate constant)
Cricetinae gen. sp. [7] = assay: Tested in vivo for inhibition of hamster lung hemorrhage after intratracheal administration at 3h prior to challenge with HLE(human leukocyte elastase); assay type: functional, Cricetulus griseus

K obs / 1 [1] [M⁻¹ s⁻¹] | half-life [2] [h] | Ki (Neutrophil elastase) [µM] | SMILES | other results
26 |  |  | CC1(C)[C@H](C(=O)N2CCC[C@@H]2C(=O)O)N2C(=O)[C@H](NC(=O)C(F)(F)F)[C@H]2S1(=O)=O | 
275 | 4.5 |  | CN(Cc1ccc(C(=O)O)cc1)C(=O)[C@@H]1N2C(=O)[C@@H](NC(=O)C(F)(F)F)[C@H]2S(=O)(=O)C1(C)C | 
 |  | 1.3 | CCO[C@H]1C(=O)N2[C@@H](C(=O)OCc3ccc(C(=O)O)cc3)C(C)(C)S(=O)(=O)[C@H]12 | 
 |  |  | CO[C@H]1C(=O)N2C(C(=O)N(C)CC(=O)O)=C(COC(C)=O)CS(=O)(=O)[C@H]12 | Inhibition (Cricetinae gen. sp. [3]): 80%; Inhibition (Cricetinae gen. sp. [4]): 54%; Inhibition (Cricetinae gen. sp. [5]): 97%
5400 | 4.2 |  | CN(Cc1ccc(C(=O)O)cc1)C(=O)[C@@H]1N2C(=O)[C@H](NC(=O)C(F)(F)F)[C@H]2S(=O)(=O)C1(C)C | 
 | 1.4 | 1.5 | CC1(C)[C@H](C(=O)OCc2ccc(C(=O)O)cc2)N2C(=O)[C@H](NC(=O)C(F)(F)F)[C@H]2[S+]1[O-] (stereo partly drawn) | 
 | 4.8 | 14 | CN(CC(=O)O)C(=O)[C@@H]1N2C(=O)[C@H](NC(=O)C(F)(F)F)[C@H]2S(=O)(=O)C1(C)C | 
 | < 1 |  | CO[C@H]1C(=O)N2[C@@H](C(=O)OCc3ccc(C(=O)O)cc3)C(C)(C)S(=O)(=O)[C@H]12 | K obs / 1 [6]: 5600 M⁻¹ s⁻¹
5700 |  |  | CN(C(=O)C(F)(F)F)[C@H]1C(=O)N2[C@@H](C(=O)OCc3ccc(C(=O)O)cc3)C(C)(C)S(=O)(=O)[C@H]12 | 
 |  | 53 | CO[C@H]1C(=O)N2[C@@H](C(=O)N(C)CC(=O)O)C(C)(C)S(=O)(=O)[C@H]12 | 
89000 | 1.1 |  | CC1(C)[C@H](C(=O)OCc2ccc(C(=O)O)cc2)N2C(=O)[C@H](NC(=O)C(F)(F)F)[C@H]2S1(=O)=O | 
1100 | 8.6 |  | CN(Cc1ccc(C(=O)O)cc1)C(=O)[C@@H]1N2C(=O)[C@H](NC(=O)C(F)(F)F)[C@@H]2[S+]([O-])C1(C)C (stereo partly drawn) | 
3800 |  |  | CO[C@H]1C(=O)N2C(C(=O)N3CCC[C@H]3C(=O)O)=C(COC(C)=O)CS(=O)(=O)[C@H]12 | Inhibition (Cricetinae gen. sp. [3]): 97%; Inhibition (Cricetinae gen. sp. [7]): 78%; Inhibition (Cricetinae gen. sp. [5]): 99%
60 | 8.2 |  | CN(Cc1ccc(C(=O)O)cc1)C(=O)[C@@H]1N2C(=O)[C@H](NC(=O)C(F)(F)F)[C@H]2[S+]([O-])C1(C)C (stereo partly drawn) | 
 |  | 22 | CC1(C)[C@H](C(=O)N2CCC[C@@H]2C(=O)O)N2C(=O)[C@@H](NC(=O)C(F)(F)F)[C@H]2S1(=O)=O | 
4900 | 5.3 |  | CC1(C)[C@H](C(=O)OCc2ccc(C(=O)O)cc2)N2C(=O)[C@H](NC(=O)C(F)(F)F)[C@@H]2[S+]1[O-] (stereo partly drawn) | 
 |  | 50 | CN(CC(=O)O)C(=O)[C@@H]1N2C(=O)[C@@H](NC(=O)C(F)(F)F)[C@H]2S(=O)(=O)C1(C)C | 
7100 | 1.1 |  | CC1(C)[C@H](C(=O)OCc2ccc(C(=O)O)cc2)N2C(=O)[C@@H](NC(=O)C(F)(F)F)[C@H]2S1(=O)=O | 
